The assay relates to Trypanosoma cruzi. Description: Inhibitory dose for selectivity against Trypanosoma cruzi. The class given is functional. Particulars: read-out: ID50 (the source's name).

From ChEMBL document CHEMBL1130476, “Molecular modeling of the interaction of trypanocide guanyl hydrazones with B-DNA” (1997) come the findings set out here.

Each structure is given as a SMILES string.

Regarding `N=C(N)N/N=C/c1ccc(Cl)cc1`, the IC50 worked out at 27.4 µM. In the case of `COc1cccc(/C=N/NC(=N)N)c1OC` it was 22.5 µM; in that of `COc1cc(/C=N/NC(=N)N)ccc1O`, 4800 µM.

`N=C(N)N/N=C/c1cc2c(cc1Br)OCO2`: the IC50 amounted to 23.7 µM. In the case of `N=C(N)N/N=C/c1cccc([N+](=O)[O-])c1O` it was 877 µM; in that of `N=C(N)N/N=C/c1ccccc1`, 205 µM.

As to `N=C(N)N/N=C/c1ccc2c(c1)OCO2`, the IC50 was 274 µM.
